{"source": "paper PMC8146336", "about": "“The Mechanisms of Thiosulfate Toxicity against Saccharomyces cerevisiae” (Antioxidants, 2021)", "target": "T1, cytochrome c oxidase (Saccharomyces cerevisiae, UniProt P00401+P00410)", "T1 construct": "gene COX1; native complex IV in whole sulfur-starved yeast cells; not purified; with Cytochrome c oxidase subunit 3; Cytochrome c oxidase subunit 4, mitochondrial; Cytochrome c oxidase subunit 5A, mitochondrial; Cytochrome c oxidase subunit 6, mitochondrial; Cytochrome c oxidase subunit 7, mitochondrial; Cytochrome c oxidase subunit 8, mitochondrial; Cytochrome c oxidase subunit 9, mitochondrial; Cytochrome c oxidase subunit 12, mitochondrial; Cytochrome c oxidase subunit 13, mitochondrial", "test": "oxygen consumption of whole cells with TMPD/ascorbate as electron donor", "format": "cell-based", "settings": "10 mM thiosulfate, 12.5 mM ascorbate, 1.4 mM TMPD, PBS, sulfur-starved cells OD600 10; CuB binding only proposed", "data": [{"smiles": "O=S(O)(O)=S", "note": "[thiosulfate]", "values": [{"measurement": "inhibition at 10 mM", "result": "In the assay, thiosulfate inhibited cytochrome c oxidase (Figure 5E)"}]}]}
